Test results: PubChem BioAssay AID2305 (GlaxoSmithKline (GSK), 2010)

The compounds below were run on P. falciparum 3D7 growth, pLDH absorbance (assay: blood-stage malaria parasite growth potency – strain 3D7, dose response (AID 2305)).

Structure (SMILES)	IC50 [nM]
O=C(N[C@H]1CCN(CCc2ccc(O[C@H]3CCNC3)c(Br)c2)C1)c1ccc(Cl)c(Cl)c1	660
O=C(Nc1ccc(-c2csc(-c3nc4ccccc4[nH]3)c2)cc1)Nc1ccc(Cl)c(Cl)c1	400
Cc1ccc(C)c(NC(=O)NC2CCN(c3ccnc(Nc4ccc(F)cc4)n3)C2)c1 (stereo not given)	680
COc1ccccc1C1CC(c2ccccc2)=NN1C(=O)c1ccco1 (stereo not given)	400
Cc1cc(CNCCCCCCCNCc2cccc([N+](=O)[O-])c2)ccc1O	640
COc1ccc2nccc(CCN3C[C@H](CNCc4ccc5c(n4)NC(=O)CS5)[C@H](O)C3)c2n1	1460
Cc1ccc(-n2c(C)nc3c(Nc4ccc(-c5ccncc5)cc4)ncnc32)c(C)c1	100
COC(=O)c1ccc(C[C@@H](C)NC[C@H](O)c2cccc(OCc3ccccc3)c2)cc1	1160
CC(C)(CNC(=O)C1CCN(Cc2ccoc2)CC1)c1nc(-c2ccc(Cl)c(O)c2)c(-c2ccncc2)[nH]1	870
COc1ccc2ncc(F)c(CCN3CCC(NCc4cc(OC)c5c(c4)OCCO5)CC3)c2n1	570
CCN(CC)C(=S)N=Nc1c(O)[nH]c2c(C)cccc12	860
O=C(Nc1ccc(Cl)cc1)c1cc(Cl)ccc1NC(=O)C1CCc2ccccc2O1 (stereo not given)	1790
O=C(Nc1cccc(-c2ccc(-c3nc4ccc(F)cc4[nH]3)cc2)c1)c1cccnc1	610
CN1CCN(CCCN(Cc2csc(-c3ccc(CNCc4ccccc4)cc3)n2)C(=O)Nc2ccc3ccccc3c2)CC1	1100
N#Cc1cccc(-c2cnc(N)c(-c3nc4ccc(S(N)(=O)=O)cc4[nH]3)c2)c1	640
O=C(/C=C/c1ccc(Cl)c(Cl)c1)NC1CCC(CN2CCC(c3c[nH]c4ccccc34)CC2)CC1 (stereo not given)	230
CCN1CCC(N(Cc2ccc(-c3ccc(C(F)(F)F)s3)cc2)C(=O)Cn2c(CCc3cccc(F)c3F)nc(=O)c3ccccc32)CC1	930
CCCCCCN1CCC(NCc2cccc(C(F)(F)F)c2)CC1	250
CN1CCC(N(Cc2ccc(-c3ccc(C(F)(F)F)cc3)nc2)C(=O)Cn2c(CCc3cccc(F)c3F)cc(=O)c3ccccc32)CC1	1100
CC(=O)c1c(Nc2c(C)cc(C)cc2C)oc(C)cc1=O	480
c1ccc(-c2cc(NCCCCCCCCNc3cc(-c4ccccc4)nc4ccccc34)c3ccccc3n2)cc1	390
O=C(CSc1nc(-c2ccccc2Cl)ns1)Nc1ccc2c(c1)OCO2	990
CCCC1N=C(N)N=C(N)N1c1ccc(C)cc1 (stereo not given)	100
CC(=O)c1cccc(NC(=O)N2CCCN(CCCCCNC(=O)/C=C/c3ccc(Cl)c(Cl)c3)CC2)c1	1010

Structure (SMILES)	IC50 [nM]
COc1cc2nc(N3CCC(CNC(=O)c4ccc(-c5ccccc5)cc4)CC3)nc(N)c2cc1OC	570
Cc1c(CNCCCNc2nc3ccccc3[nH]2)sc(C(F)F)c1Br	290
COc1cc2nc(NCCn3nc(C)cc3C)nc(NCCc3ccccc3)c2cc1OC	440
N#CC(c1cccc(Cl)c1)c1ccc2c(C(F)(F)F)cc(C(F)(F)F)nc2n1 (stereo not given)	730
CC(C)C1C(O)=C(c2ccc3ccccc3c2)C(=O)N1Cc1cccc(F)c1 (stereo not given)	810
CCC(C)(C)NC(=O)C(c1cccc(OC)c1)N(C(=O)CNC(=O)c1cccs1)c1ccc2c(c1)OCCO2 (stereo not given)	830
CC[C@H]1CN2CC[C@@H]1C[C@H]2[C@H](O)c1cc(N2CCSCC2)nc2ccc(OC)cc12	200
CN(C)C(=O)C(CC(=O)NCc1ccccc1Cl)N(C)C (stereo not given) (tested in a mixture with another compound)	900
COC(=O)/C=C/C(=O)N[C@@H]1CC[C@@]2(O)[C@H]3Cc4ccc(O)c5c4[C@@]2(CCN3CC2CC2)[C@H]1O5	640
CCCCc1cc(NCC)nc(Nc2cccc(OC)c2)n1	920
N#Cc1ccc(-c2ccc(C(=O)NCCCCN3CCC(c4ccc5c(c4OCc4ccccn4)CCCC5)CC3)cc2)cc1	820
O=C(N[C@@H](Cc1ccccc1)C(=O)NCc1cccc(C(F)(F)F)c1)c1ccc(O)c(-c2ccc(Cl)c(Cl)c2)c1	700
COc1cccc2c(NN=Cc3ccccc3[N+](=O)[O-])ccnc12	590
CC(C)[C@H](NC(=O)c1ccc(O)c(-c2ccc(Cl)c(Cl)c2)c1)C(=O)NC1CCCCCC1	220
COC(=O)c1cccc(CNCc2ccc(-c3ccc(-c4nc5c(C)cccc5[nH]4)s3)cc2)c1	400
Cc1cccc2[nH]c(-c3cccc(-c4cccc(CNCC5CCCO5)c4)c3)nc12 (stereo not given)	600
CC(C)C[C@@H](C(=O)N[C@H](C(=O)Nc1nccs1)C(C)(C)C)[C@H](CCC(F)(F)F)N(O)C=O	600
CN1CCN(CCCCNc2c3ccccc3nc3ccccc23)CC1	700
O=C(Nc1ccc([N+](=O)[O-])cc1O)Nc1ccccc1Oc1ccccc1	930
CCOc1ncccc1CN1CCC(N2CCc3cc(NC(=O)c4ccco4)ccc32)C1 (stereo not given)	760
CC(C)(C)c1ccc(Cn2nc(C(=O)N3CCN(C(=O)C4CCCO4)CC3)c3ccccc32)cc1 (stereo not given)	1320
N#Cc1cccc(/C=C/C(=O)NC2CCC(CCN3CCc4ccc(-c5cnccn5)cc4CC3)CC2)c1 (stereo not given)	770
Cc1cc(Nc2c(C(N)=O)cnc3cc(-c4ccoc4)ccc23)ccc1N1CCN(C)CC1	800
Cc1ccc(Cn2ncc(NC3CCNCC3)c(Cl)c2=O)cc1NC(=O)Nc1ccc(-c2ccccc2)cc1	660

Structure (SMILES)	IC50 [nM]
O=C(NCc1ccc(Cl)cc1)c1ccc(CN2CCCN(Cc3cccc(O)c3)CC2)cc1	1170
Cc1cc(C)cc(OCC(O)CN(Cc2cc(Cl)cc(Cl)c2)C(=O)Nc2ccccc2Cl)c1 (stereo not given)	940
Cc1nc(-c2ccc3c(c2)CCN(CCC2CCC(NC(=O)c4cc5cccc(Cl)c5[nH]4)CC2)CC3)no1 (stereo not given)	630
COc1cc(C)c(NC(=O)c2cccc3c(=O)c(C)c(-c4ccccc4)oc23)cc1OC	1630
Nc1ncc(-c2ccc3[nH]ccc3c2)c2ccc(-c3ccncc3)cc12	540
Cc1ccc(C(NC(=O)c2ccccc2)c2ccc3cccnc3c2O)cc1 (stereo not given)	960
O=C(NC1CCN(Cc2ccsc2)CC1)c1ccc(-c2cccc(C(F)(F)F)c2)s1	1440
COc1ccccc1N1CCN(c2cccc(F)c2C#N)CC1	960
CN1CCCC1CCNC(=O)[C@H](CC1CCCCC1)NC(=O)c1ccc(O)c(-c2ccc(Cl)c(Cl)c2)c1 (stereo not given in full)	740
CCN(CC)CCN(Cc1ccc(-c2ccc(C(F)(F)F)cc2)cc1)C(=O)Cn1c(CCc2cccc(F)c2F)nc(=O)c2ccc(C(F)(F)F)cc21	780
COc1cc(NC(=O)N2CCOC(CCN3CCC4(CCc5ccccc54)CC3)(c3ccc(Cl)c(Cl)c3)C2)cc(OC)c1 (stereo not given)	820
Cc1ccc(C)c(N2CCN(Cc3ccccc3O)CC2)c1	940
Cc1cccc(C(=O)Nc2ccnc(N3CCC(N(C)Cc4ccccc4)CC3)c2)c1	960
COc1ccc(Cn2c(=O)[nH]c3cc(C(=O)NC4CCN(Cc5ccccc5)CC4)ccc3c2=O)cc1	750
CCCCCCNC(=O)C1Cc2c([nH]c3ccc(C)cc23)C2(CCN(CCc3ccccc3)CC2)N1 (stereo not given)	1270
Cc1noc(C)c1-c1cccc(CNCc2ccc(-c3ccc(-c4nc5ccc(C(F)(F)F)cc5[nH]4)cc3)cc2)c1	170
CCC(CSC1CCCCC1)N(C)CCN(C)C(CC)CSC1CCCCC1 (stereo not given)	310
COc1ccc(Nc2nccc(N3CCC(NS(=O)(=O)c4ccc(NC(C)=O)cc4)C3)n2)cc1 (stereo not given)	800
CN(C)CCCOC(=O)c1cc2cc(-c3ccccc3)ccc2n1S(=O)(=O)Cc1ccccc1	360
O=C(/C=C/c1ccc(Cl)c(Cl)c1)NCCCCCN1CCC(NC(=O)Nc2ccc(C(F)(F)F)cc2)C1 (stereo not given)	510
Cc1cc(-c2cc(Cl)ccc2Cl)no1	170
CN(C)C(=S)N=Nc1c(O)[nH]c2ccccc12	1050
OC(CNC1CCCCC1)c1ccc(Cl)c(Cl)c1 (stereo not given)	700
CC1(C)[C@H]2CC[C@]1(C)CN(CC(O)Cn1c3ccccc3c3cc(I)ccc31)C2 (stereo not given in full)	1160

Structure (SMILES)	IC50 [nM]
O=S(=O)(Nc1ccc2nccc(N3CCNCC3)c2c1)c1ccc2oc3ccccc3c2c1	690
Cc1cccc2[nH]c(-c3cccc(-c4ccc(NC(=O)CN5CCOCC5)cc4)c3)nc12	1050
COc1ccc(-n2nc(C)c3c2NC(=O)CC3c2ccccc2OCc2ccccc2F)cc1 (stereo not given)	900
CCc1ccc(O)c(-c2cc(C(=O)Nc3cccnc3)[nH]n2)c1	690
Cc1[nH]c(C)c(-c2ccc(-c3cc(C(F)(F)F)cc(C(F)(F)F)c3)nc2)c(=O)c1Br	80
CC(C)COc1ccc(Cl)cc1Cc1ccc(-c2nc3ccc(C(F)(F)F)cc3[nH]2)o1	850
c1cc(CNC2Cc3ccccc3C2)cc(-c2cnc(N3CCNCC3)nc2)c1	940
C=CC[C@H](C[C@H](O)[C@H](Cc1ccccc1)NC(=O)c1ccc(-c2cccnn2)cc1)C(=O)NC1CCCCC1	1190
CCOc1cc(C(=O)Nc2cccnc2)ccc1-c1nc2cc(Cl)c(Cl)cc2[nH]1	1010
CC(=O)Nc1cccc(C(=O)Nc2ccc(-c3cccc(-c4nc5ccc(F)cc5[nH]4)c3)cc2)c1	630
Cc1cc(C(=O)Nc2nc(-c3ccccn3)nc3ccsc23)no1	810
Cc1ccc(NC(=O)c2ccc(C(=O)NC3CCN(CC4CCCCC4)CC3)cc2)cc1	900
CN1CCN(CCCNc2ncc3c(-c4ccc(NC(=O)Nc5cc(C(F)(F)F)ccc5F)c(F)c4)nn(C)c3n2)CC1	860
CCOC(=O)Cn1ccc2c(NCc3ccccc3)nc(C)nc21	370
O=C1OC2(CN1CC1CCN(Cc3ccc(-n4ccnc4)cc3)C1)c1ccccc1-c1ccccc12 (stereo not given)	980
COc1cc(Cc2c(C)nc3nc(N)nc(N)c3c2C)c(Br)c(OC)c1OC	400
CN(C)CCCNc1ncnc2c1[nH]c1ccc(Cl)cc12	280
CCCC(N)C(=O)NC1CCN(c2c(F)c(N)c3c(=O)c(C(=O)O)cn4c3c2Oc2ccccc2-4)C1 (stereo not given)	360
COc1ccc(Nc2nc(NC3CCN(C)CC3)cc(-c3ccc(OC)cc3)n2)cc1	540
CCNc1cc(C(=O)N[C@@H](Cc2ccc(F)c(F)c2)[C@H](O)CNCc2cccc(OC)c2)cc(N2CCCCS2(=O)=O)c1	750
COCCOc1cc(C)c(C2CCN(CCCCNC(=O)c3ccc(NC(=O)c4ccc(Cl)cc4)cc3)CC2)cc1C	950
CC(Oc1cc(-n2cnc3ccc(NC(=O)CCN4CCCCC4)cc32)sc1C(N)=O)c1ccccc1Cl (stereo not given)	400
O=C(NC1CC1)c1cnc(N2CCC(Cc3ccccc3)CC2)c(Cl)c1	670
